Measured values from ChEMBL document CHEMBL3608247, “Human SIRT3 tripeptidic inhibitors containing N(ε)-thioacetyl-lysine” (Bioorg Med Chem Lett, 2015).

How the values were obtained:
[1] = molecular target: T1, NAD-dependent protein deacetylase sirtuin-2 (Homo sapiens, UniProt Q8IXJ6); assay: Inhibition of human His6-tagged SIRT2 after 12 mins by HPLC analysis in presence of beta-NAD
T1 sequence (Q8IXJ6 whole entry): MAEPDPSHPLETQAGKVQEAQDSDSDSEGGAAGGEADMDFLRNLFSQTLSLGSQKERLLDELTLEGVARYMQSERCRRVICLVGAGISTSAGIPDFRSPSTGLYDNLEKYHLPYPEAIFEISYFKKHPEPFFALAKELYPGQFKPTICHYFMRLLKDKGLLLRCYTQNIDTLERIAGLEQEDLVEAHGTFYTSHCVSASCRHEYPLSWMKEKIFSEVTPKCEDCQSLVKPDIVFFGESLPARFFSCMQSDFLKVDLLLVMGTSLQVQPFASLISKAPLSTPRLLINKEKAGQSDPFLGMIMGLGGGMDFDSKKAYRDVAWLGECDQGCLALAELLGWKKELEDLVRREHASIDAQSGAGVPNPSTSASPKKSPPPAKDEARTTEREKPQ

[2] = molecular target: T2, NAD-dependent protein deacetylase sirtuin-1 (Homo sapiens, UniProt Q96EB6); assay: Inhibition of human His6 or GST-tagged SIRT1 after 10 mins by HPLC analysis in presence of beta-NAD
T2 sequence (Q96EB6 whole entry): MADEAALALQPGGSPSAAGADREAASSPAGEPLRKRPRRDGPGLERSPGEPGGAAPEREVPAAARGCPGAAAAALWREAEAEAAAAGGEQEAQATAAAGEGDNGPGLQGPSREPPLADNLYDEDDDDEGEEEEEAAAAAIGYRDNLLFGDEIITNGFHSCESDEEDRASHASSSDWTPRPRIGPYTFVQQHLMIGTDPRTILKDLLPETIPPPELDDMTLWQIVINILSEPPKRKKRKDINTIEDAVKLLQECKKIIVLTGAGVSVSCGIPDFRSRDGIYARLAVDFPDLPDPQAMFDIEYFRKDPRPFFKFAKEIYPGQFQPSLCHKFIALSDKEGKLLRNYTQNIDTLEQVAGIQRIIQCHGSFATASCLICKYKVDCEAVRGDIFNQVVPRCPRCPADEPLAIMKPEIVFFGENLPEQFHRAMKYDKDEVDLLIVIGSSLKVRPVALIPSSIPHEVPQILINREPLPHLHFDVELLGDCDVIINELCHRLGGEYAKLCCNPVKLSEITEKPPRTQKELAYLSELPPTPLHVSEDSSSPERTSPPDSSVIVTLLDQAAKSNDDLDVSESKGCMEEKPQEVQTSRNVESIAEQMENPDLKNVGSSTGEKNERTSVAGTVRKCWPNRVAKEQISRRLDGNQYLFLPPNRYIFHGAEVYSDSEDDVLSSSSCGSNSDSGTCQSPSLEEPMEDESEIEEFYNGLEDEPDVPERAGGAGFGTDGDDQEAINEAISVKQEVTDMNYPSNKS

[3] = molecular target: T3, NAD-dependent protein deacetylase sirtuin-3, mitochondrial (Homo sapiens, UniProt Q9NTG7); assay: Inhibition of human His6-tagged SIRT3 after 10 mins by HPLC analysis in presence of beta-NAD
T3 sequence (Q9NTG7 whole entry): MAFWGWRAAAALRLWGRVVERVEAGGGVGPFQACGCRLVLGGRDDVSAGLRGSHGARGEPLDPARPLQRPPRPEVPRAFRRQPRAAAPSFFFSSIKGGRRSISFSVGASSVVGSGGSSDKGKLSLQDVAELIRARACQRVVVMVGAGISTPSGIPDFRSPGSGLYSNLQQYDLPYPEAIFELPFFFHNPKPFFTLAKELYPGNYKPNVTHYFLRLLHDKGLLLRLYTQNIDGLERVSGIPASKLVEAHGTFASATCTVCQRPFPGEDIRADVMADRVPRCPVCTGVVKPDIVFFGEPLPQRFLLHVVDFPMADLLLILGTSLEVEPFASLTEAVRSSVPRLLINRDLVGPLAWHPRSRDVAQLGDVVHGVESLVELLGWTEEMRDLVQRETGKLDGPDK

[4] = organism: Homo sapiens; assay: Selectivity ratio of IC50 for human His6-tagged SIRT2 to IC50 for human His6-tagged SIRT3
[5] = organism: Homo sapiens; assay: Selectivity ratio of IC50 for human His6 or GST-tagged SIRT1 to IC50 for human His6-tagged SIRT3
[6] = molecular target: T1, NAD-dependent protein deacetylase sirtuin-2; assay: Inhibition of human His6-tagged SIRT2 after 12 mins by Dixon plot analysis in presence of beta-NAD
[7] = molecular target: T2, NAD-dependent protein deacetylase sirtuin-1; assay: Inhibition of human His6 or GST-tagged SIRT1 after 10 mins by Dixon plot analysis in presence of beta-NAD
[8] = molecular target: T3, NAD-dependent protein deacetylase sirtuin-3, mitochondrial; assay: Inhibition of human His6-tagged SIRT3 after 10 mins by Dixon plot analysis in presence of beta-NAD
[9] = molecular target: NAD-dependent protein deacylase sirtuin-6 (Homo sapiens, UniProt Q8N6T7); assay: Inhibition of human GST-tagged SIRT6 after 12 mins by HPLC analysis in presence of beta-NAD
[10] = molecular target: NAD-dependent protein deacylase sirtuin-5, mitochondrial (Homo sapiens, UniProt Q9NXA8); assay: Inhibition of human GST-tagged SIRT5 after 5 mins by HPLC analysis in presence of beta-NAD
Sequence of NAD-dependent protein deacylase sirtuin-5, mitochondrial (Q9NXA8 whole entry): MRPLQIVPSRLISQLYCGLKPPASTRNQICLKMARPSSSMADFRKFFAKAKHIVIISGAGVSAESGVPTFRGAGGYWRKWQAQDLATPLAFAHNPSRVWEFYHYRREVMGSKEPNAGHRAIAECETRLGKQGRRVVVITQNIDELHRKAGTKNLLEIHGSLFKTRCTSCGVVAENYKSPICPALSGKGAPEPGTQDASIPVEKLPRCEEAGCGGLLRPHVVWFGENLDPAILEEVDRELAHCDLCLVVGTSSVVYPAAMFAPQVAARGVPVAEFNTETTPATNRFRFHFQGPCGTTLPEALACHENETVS

Sequence of NAD-dependent protein deacylase sirtuin-6 (Q8N6T7 whole entry): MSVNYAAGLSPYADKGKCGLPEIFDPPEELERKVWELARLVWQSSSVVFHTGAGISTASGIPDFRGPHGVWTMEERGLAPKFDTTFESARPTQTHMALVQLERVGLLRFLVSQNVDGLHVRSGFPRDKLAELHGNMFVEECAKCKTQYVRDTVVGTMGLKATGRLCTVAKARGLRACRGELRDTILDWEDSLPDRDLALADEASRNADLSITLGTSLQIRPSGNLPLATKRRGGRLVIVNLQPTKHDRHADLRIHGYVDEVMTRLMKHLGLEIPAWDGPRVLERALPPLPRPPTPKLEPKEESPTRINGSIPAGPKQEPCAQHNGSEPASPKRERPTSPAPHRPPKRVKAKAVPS

Row | Structure (SMILES) | IC50 [1] | IC50 [2] | IC50 [3] | also measured
1 | CCCC[C@H](NC(=O)[C@H](CCCCNC(C)=S)NC(=O)[C@H](CCCCNC(C)=O)NC(C)=O)C(N)=O | 5.1 µM | 0.63 µM |  | 
2 | CC(=O)NC[C@H](NC(=O)[C@H](CCCCNC(C)=S)NC(=O)[C@H](Cc1csc2ccccc12)NC(C)=O)C(N)=O | 8.75 µM | 9.6 µM | 1.75 µM | Ratio IC50 [4]: 5; Ratio IC50 [5]: 5.5
3 | CC(=O)NCCCC[C@H](NC(=O)[C@H](CCCCNC(C)=S)NC(=O)[C@H](Cc1ccc2ccccc2c1)NC(C)=O)C(N)=O |  |  |  | IC50 [6]: 12 µM; IC50 [7]: 12.6 µM; IC50 [8]: 1.29 µM
4 | CCCC[C@H](NC(C)=O)C(=O)N[C@@H](CCCCNC(C)=S)C(=O)N[C@@H](CCCCNC(C)=O)C(N)=O | 0.81 µM | 2.78 µM |  | 
5 | CC(=O)NC[C@H](NC(=O)[C@H](CCCCNC(C)=S)NC(=O)[C@H](Cc1ccc2ccccc2c1)NC(C)=O)C(N)=O |  |  |  | IC50 [6]: 17.8 µM; IC50 [7]: 18.9 µM; IC50 [8]: 1.91 µM; IC50 [9]: 307 µM; IC50 [10]: 2000 µM; Ratio IC50 [4]: 9.3; Ratio IC50 [5]: 9.9
6 | CC(=O)NCCCC[C@H](NC(=O)[C@H](CCCCNC(C)=S)NC(=O)[C@H](Cc1csc2ccccc12)NC(C)=O)C(N)=O |  |  |  | IC50 [6]: 14.5 µM; IC50 [7]: 14.4 µM; IC50 [8]: 1.44 µM
7 | CC(=O)NC[C@H](NC(=O)[C@H](CCCCNC(C)=S)NC(=O)[C@H](CNC(C)=O)NC(C)=O)C(N)=O | 11.9 µM | 6.6 µM | 1.8 µM | Ratio IC50 [4]: 6.6; Ratio IC50 [5]: 3.7
8 | CC(=O)NCCCC[C@H](NC(C)=O)C(=O)N[C@@H](CCCCNC(C)=S)C(=O)N[C@@H](Cc1csc2ccccc12)C(N)=O | 2.38 µM | 1.15 µM | 1.4 µM | 
9 | CC(=O)NCCCC[C@H](NC(C)=O)C(=O)N[C@@H](CCCCNC(C)=S)C(=O)N[C@@H](CNC(C)=O)C(N)=O | 1.51 µM | 2.32 µM | 0.36 µM | 
10 | CC(=O)NCCCC[C@H](NC(C)=O)C(=O)N[C@@H](CCCCNC(C)=S)C(=O)N[C@@H](Cc1ccc2ccccc2c1)C(N)=O | 2.26 µM | 0.64 µM | 2.1 µM | 
11 | CC[C@H](NC(=O)[C@H](CCCCNC(C)=S)NC(=O)[C@H](CCCCNC(C)=O)NC(C)=O)C(N)=O | 1.41 µM | 1.96 µM | 1.1 µM | 
12 | CC(=O)NCCCC[C@H](NC(=O)[C@H](CCCCNC(C)=S)NC(=O)[C@H](CCc1ccccc1)NC(C)=O)C(N)=O | 5.52 µM | 3.65 µM |  | 
13 | CCC[C@H](NC(=O)[C@H](CCCCNC(C)=S)NC(=O)[C@H](CCCCNC(C)=O)NC(C)=O)C(N)=O | 1.38 µM | 2.85 µM |  | 

The next lines start with results.

Row | IC50 [1] | IC50 [2] | IC50 [3] | Structure (SMILES) | also measured
14 | 1.34 µM | 2.13 µM |  | CC[C@H](NC(C)=O)C(=O)N[C@@H](CCCCNC(C)=S)C(=O)N[C@@H](CCCCNC(C)=O)C(N)=O | 
15 | 7.71 µM | 10.7 µM | 2.1 µM | CCC[C@H](NC(C)=O)C(=O)N[C@@H](CCCCNC(C)=S)C(=O)N[C@@H](CCCCNC(C)=O)C(N)=O | 
16 | 4.5 µM | 3.03 µM |  | CC(=O)NCCCC[C@H](NC(=O)[C@H](CCCCNC(C)=S)NC(=O)[C@H](Cc1ccc(-c2ccccc2)cc1)NC(C)=O)C(N)=O | 
17 | 7.76 µM | 6.86 µM | 1 µM | CC(=O)NCCCC[C@H](NC(=O)[C@H](CCCCNC(C)=S)NC(=O)[C@H](CNC(C)=O)NC(C)=O)C(N)=O | 
18 | 3.92 µM | 2.4 µM | 3.2 µM | CC(=O)NCCCC[C@H](NC(C)=O)C(=O)N[C@@H](CCCCNC(C)=S)C(=O)N[C@@H](Cc1ccc(-c2ccccc2)cc1)C(N)=O | 
19 | 0.65 µM | 1.45 µM |  | CC(=O)NCCCC[C@H](NC(C)=O)C(=O)N[C@@H](CCCCNC(C)=S)C(=O)N[C@@H](CCc1ccccc1)C(N)=O | 
20 | 8.32 µM | 6.6 µM | 1.62 µM | CC(=O)NC[C@H](NC(=O)[C@H](CCCCNC(C)=S)NC(=O)[C@H](Cc1ccc(-c2ccccc2)cc1)NC(C)=O)C(N)=O | Ratio IC50 [4]: 5.1; Ratio IC50 [5]: 4.1
